Source: the supplement of paper PMC11061612

Experiments:
Experiment in all cases: combination Emax (second highest fraction inhibited in the dose matrix, 72 h); higher = more inhibition; extreme values may be limits of the assay
[1] = tested on: COR-L23 (Non-Small Cell Lung Carcinoma)
Outline: (§1)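 Cell lines in DMEM/F12 or RPMI with 10% FBS were plated in 1536-well plates, held 24 hours at 37°C, 5% CO2, then given two-drug dose matrices for 72 hours (DMSO typically 0.2%). Viability was read by CellTiter-Glo 2.0 luminescence and scaled as inhibition from 0 (vehicle wells) to 1 (blank wells). Combination Emax is the second-highest inhibition in the matrix; Bliss excess is observed combination effect minus expected EA + EB − EA·EB, EA and EB being single-agent effects.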

[2] = tested on: CTV-1 (T-Lymphoblastic Leukemia)
Outline: as §1

[3] = tested on: DMS-273 (Small Cell Lung Carcinoma)
Outline: as §1

[4] = tested on: DOV13 (Ovarian Carcinoma)
Outline: as §1

ES7 (Ewing's Sarcoma) = tested on: ES7 (Ewing's Sarcoma)
Outline: as §1

[5] = tested on: G-292-Clone-A141B1 (Osteosarcoma)
Outline: as §1

[6] = tested on: KM-H2 (Hodgkin's Lymphoma)
Outline: as §1

[7] = tested on: LS-513 (Colorectal Carcinoma)
Outline: as §1

[8] = tested on: MDA-MB-157 (Breast Carcinoma)
Outline: as §1

[9] = tested on: MDA-MB-231 (Breast Carcinoma)
Outline: as §1

[10] = tested on: MFH-ino (Other Solid Carcinomas)
Outline: as §1

[11] = tested on: NALM-6 (B-Lymphoblastic Leukemia)
Outline: as §1

[12] = tested on: NCI-H1781 (Lung Adenocarcinoma)
Outline: as §1

[13] = tested on: NCI-H1793 (Lung Adenocarcinoma)
Outline: as §1

NCI-H2369 (Mesothelioma) = tested on: NCI-H2369 (Mesothelioma)
Outline: as §1

NCI-H2595 (Mesothelioma) = tested on: NCI-H2595 (Mesothelioma)
Outline: as §1

[14] = tested on: OCI-AML2 (Acute Myeloid Leukemia)
Outline: as §1

[15] = tested on: SW1990 (Pancreatic Carcinoma)
Outline: as §1

[16] = tested on: SW780 (Bladder Carcinoma)
Outline: as §1

[17] = tested on: TE-5 (Esophageal Squamous Cell Carcinoma)
Outline: as §1

| SMILES | combination Emax [1] | combination Emax [2] | combination Emax [3] | combination Emax [4] | combination Emax (ES7 (Ewing's Sarcoma)) | combination Emax [5] | combination Emax [6] | combination Emax [7] | combination Emax [8] | combination Emax [9] | combination Emax [10] | combination Emax [11] | combination Emax [12] | combination Emax [13] | combination Emax (NCI-H2369 (Mesothelioma)) | combination Emax (NCI-H2595 (Mesothelioma)) | combination Emax [14] | combination Emax [15] | combination Emax [16] | combination Emax [17] |
| --- | --- | --- | --- | --- | --- | --- | --- | --- | --- | --- | --- | --- | --- | --- | --- | --- | --- | --- | --- | --- |
| Cc1c2c(nn1C)CSCc1cc(n(C)n1)CSc1cc(c3ccccc3c1)OCCCc1c(C(=O)O)n(C)c3c-2c(Cl)ccc13 [AZD5991] + C=CCn1c(=O)c2cnc(Nc3ccc(N4CCN(C)CC4)cc3)nc2n1-c1cccc(C(C)(C)O)n1 [AZD1775] (first compound max 1 µM, partner max 1 µM) | 0.605 | 0.925 | 0.987 | 0.829 | 0.732 | 0.262 | 0.968 | 0.871 | 0.958 | 0.418 | 0.31 | 0.878 | 0.65 | 0.488 | 0.327 | 0.282 | 1 | 0.537 | 0.172 | 0.536 |
| CC1(C)CCC(CN2CCN(c3ccc(C(=O)NS(=O)(=O)c4ccc(NCC5CCOCC5)c([N+](=O)[O-])c4)c(Oc4cnc5[nH]ccc5c4)c3)CC2)=C(c2ccc(Cl)cc2)C1 [Venetoclax] + COc1cc(Nc2ncc3c(n2)-c2ccc(Cl)cc2C(c2c(F)cccc2OC)=NC3)ccc1C(=O)O [Alisertib] (first compound max 1 µM, 7x7, partner max 10 µM) | 0.307 | 0.976 | 0.767 | 0.693 | 0.917 | 0.484 | 0.448 | 0.55 | 0.649 | 0.392 | 0.318 | 0.977 | 0.665 | 0.612 | 0.327 | 0.211 | 1 | 0.415 | 0.534 | 0.137 |
| CC(=O)c1c(C)c2cnc(Nc3ccc(N4CCNCC4)cn3)nc2n(C2CCCC2)c1=O [Palbociclib] + CC1(C)CCC(CN2CCN(c3ccc(C(=O)NS(=O)(=O)c4ccc(NCC5CCOCC5)c([N+](=O)[O-])c4)c(Oc4cnc5[nH]ccc5c4)c3)CC2)=C(c2ccc(Cl)cc2)C1 [Venetoclax] (first compound max 10 µM, 7x7, partner max 1 µM) | 0.106 | 0.921 | 0.351 | 0.752 | 0.644 | 0.0906 | 0.383 | 0.648 | 0.115 | 0.408 | 0.219 | 0.933 | 0.118 | 0.197 | 0.139 | 0.104 | 1 | 0.143 | 0.108 | 0.0622 |
| Cc1c2c(nn1C)CSCc1cc(n(C)n1)CSc1cc(c3ccccc3c1)OCCCc1c(C(=O)O)n(C)c3c-2c(Cl)ccc13 [AZD5991] + Cn1cnc2c(F)c(Nc3ccc(Br)cc3Cl)c(C(=O)NOCCO)cc21 [Selumetinib] (first compound max 1 µM, 7x7, partner max 3 µM) | 0.31 | 0.187 | 0.987 | 0.252 | 0.759 | 0.221 | 0.191 | 0.796 | 0.641 | 0.4 | 0.358 | 0.369 | 0.492 | 0.244 | 0.151 | 0.283 | 1 | 0.41 | 0.333 | 0.287 |
| Cc1nc(Nc2ncc(C(=O)Nc3c(C)cccc3Cl)s2)cc(N2CCN(CCO)CC2)n1 [Dasatinib] + CC(=O)Nc1cccc(-n2c(=O)n(C3CC3)c(=O)c3c(Nc4ccc(I)cc4F)n(C)c(=O)c(C)c32)c1 [Trametinib] (first compound max 2 µM, 7x7, partner max 1 µM) | 0.85 | 1 | 0.323 | 0.814 | 0.294 | 0.722 | 0.234 | 0.998 | 0.234 | 0.832 | 0.513 | 0.621 | 0.34 | 0.567 | 0.277 | 0.265 | 1 | 0.399 | 0.625 | 0.322 |
| COc1cccc(OCCCN)c1-c1cc(Nc2cnc(C#N)cn2)n[nH]1 [Prexasertib] + O=C(c1cc(Cc2n[nH]c(=O)c3ccccc23)ccc1F)N1CCN(C(=O)C2CC2)CC1 [Olaparib] (first compound max 1 µM, 7x7, partner max 10 µM) | 0.657 | 0.821 | 0.919 | 0.962 | 0.976 | 0.3 | 0.877 | 0.781 | 0.938 | 0.639 | 0.45 | 0.96 | 0.631 | 0.532 | 0.283 | 0.23 | 1 | 0.696 | 0.23 | 0.521 |
| COc1cccc(OCCCN)c1-c1cc(Nc2cnc(C#N)cn2)n[nH]1 [Prexasertib] + C=CCn1c(=O)c2cnc(Nc3ccc(N4CCN(C)CC4)cc3)nc2n1-c1cccc(C(C)(C)O)n1 [AZD1775] (first compound max 1 µM, partner max 1 µM) | 0.652 | 1 | 0.984 | 0.971 | 0.966 | 0.32 | 0.962 | 0.949 | 0.969 | 0.9 | 0.397 | 0.934 | 0.736 | 0.532 | 0.296 | 0.307 | 1 | 0.688 | 0.303 | 0.625 |
| NC1(C(=O)N[C@@H](CCO)c2ccc(Cl)cc2)CCN(c2ncnc3[nH]ccc23)CC1 [Capivasertib] + COc1nnc2ccc(N3CCC(c4ccc(OCCN5CCN(C)C(=O)[C@H]5C)cc4)CC3)nn12 [AZD5153] (first compound max 10 µM, 7x7, partner max 1 µM) | 0.552 | 1 | 0.884 | 0.535 | 0.811 | 0.573 | 0.546 | 0.641 | 0.389 | 0.703 | 0.513 | 0.945 | 0.527 | 0.37 | 0.268 | 0.301 | 1 | 0.208 | 0.226 | 0.609 |
| C=CCn1c(=O)c2cnc(Nc3ccc(N4CCN(C)CC4)cc3)nc2n1-c1cccc(C(C)(C)O)n1 [AZD1775] + C[C@@H]1COCCN1C2=NC(=NC(=C2)C3(CC3)[S@](=N)(=O)C)C4=C5C=CNC5=NC=C4 [AZD6738] (first compound max 1 µM, partner max 10 µM) | 0.595 | 0.993 | 0.923 | 0.928 | 0.903 | 0.354 | 0.961 | 0.87 | 0.947 | 0.84 | 0.536 | 0.971 | 0.65 | 0.548 | 0.336 | 0.266 | 1 | 0.623 | 0.246 | 0.577 |
| COc1cccc(OCCCN)c1-c1cc(Nc2cnc(C#N)cn2)n[nH]1 [Prexasertib] + Cc1cc2ncnn2cc1Nc1ncc2c(n1)n(C1CCOCC1)c(=O)n2C [AZD7648] (first compound max 1 µM, 7x7, partner max 10 µM) | 0.711 | 0.966 | 0.909 | 0.914 | 0.876 | 0.295 | 0.924 | 0.848 | 0.961 | 0.696 | 0.464 | 0.943 | 0.468 | 0.432 | 0.253 | 0.159 | 1 | 0.703 | 0.26 | 0.526 |
| Cc1c2c(nn1C)CSCc1cc(n(C)n1)CSc1cc(c3ccccc3c1)OCCCc1c(C(=O)O)n(C)c3c-2c(Cl)ccc13 [AZD5991] + CCN(CCO)CCCOc1ccc2c(Nc3cc(CC(=O)Nc4cccc(F)c4)[nH]n3)ncnc2c1 [AZD2811] (first compound max 1 µM, 7x7, partner max 1 µM) | 0.201 | 0.278 | 0.993 | 0.603 | 0.95 | 0.276 | 0.271 | 0.623 | 0.846 | 0.321 | 0.251 | 0.655 | 0.875 | 0.2 | 0.176 | 0.324 | 1 | 0.298 | 0.213 | 0.261 |
| COc1cccc(OCCCN)c1-c1cc(Nc2cnc(C#N)cn2)n[nH]1 [Prexasertib] + CCc1c2c(nc3ccc(O)cc13)-c1cc3c(c(=O)n1C2)COC(=O)[C@]3(O)CC [SN-38] (first compound max 1 µM, 7x7, partner max 0.3 µM) | 0.852 | 0.999 | 0.997 | 0.959 | 1 | 0.34 | 0.944 | 0.751 | 0.989 | 0.978 | 0.704 | 0.983 | 0.993 | 0.769 | 0.4 | 0.426 | 1 | 0.741 | 0.969 | 0.818 |
